# Results taken from patent US20070249725A1, “Pharmaceutical formulations of sympathetic antagonist for the treatment of chronic muscle pain” (priority 2006, published 2007).
# Structures can show the parent of a compound that is named as a salt.
# Legend:
# [1] = pH of phenoxybenzamine formulations; assay type: physicochemical; conditions: active solutions
# Procedure: (§1) This was a multicenter, randomized, placebo-controlled, double-blind, dose response study of intramuscular phenoxybenzamine hydrochloride (PBZ) versus vehicle and saline placebos. Phenoxybenzamine formulation known in the art (propylene glycol and alcohol) and diluted in saline at the time of injection were evaluated. […] Patients with pain in the most commonly affected regions, the upper and lower back, were studied. Patients enrolled in this study were male or female with 4 months to 8 years of myofascial pain syndrome with identifiable active trigger points. Patients were required to have had EMG documented triggers points and meet the criteria of <10 uV in the adjacent muscle site and have a minimum of a 2:1 ratio of trigger point amplitude: adjacent amplitude. Attempts were made to obtain maximum amplitude in the trigger point.
# For determination of the pH value of the active solutions, a 5% solution of the Phenoxybenzamine HCL measured 3.25. Examples of packaging material include 2-mL vials, Pharmatek Lot No. 0001, Part No. PTC-0001; rubber stoppers, Pharmatek Lot No. 0002, Part No. PTC-0002; Truedge® seals, Pharmatek Lot No. 0003, Part No. PTC-0003; Supor® filters, Pharmatek Lot No. 0005, Part No. PTC-0004; and labels, to be generated by PrimaPharm Inc. These can be supplied in the form of a kit.
# [2] = Multicenter placebo-controlled dose response study of intramuscular PBZ: safety and tolerance (Example II); assay type: in vivo, human; conditions: most frequent adverse event
# active trigger points = experiment: Multicenter, randomized, placebo-controlled, double-blind dose response study of intramuscular PBZ: efficacy (Example II); assay type: in vivo, human
# Procedure: as §1
# The primary objectives of this study were to evaluate the safety, tolerance, and efficacy of 4 doses (0.1, 0.3, 1.0, or 2.4 mg) of phenoxybenzamine per intramuscular injection site. The vehicle placebo group received vehicle in a concentration equivalent to the active doses. A second placebo was saline. All injections were of 0.3 ml in volume. Up to 10 trigger points were injected at each treatment session. There were up to 2 treatment sessions up to 10 days apart. The primary efficacy evaluation was made at week 12 of treatment. The Visual Analogue Pain Scale (VAS) was used to assess pain in the affected region before and after treatment. Secondary efficacy assessments included the McGill Pain Questionnaire (MPQ), the Spinal Function Sort (SFS) and the SF-36 Quality of Life questionnaire.
compound,measurement,setting,value
"CC(COc1ccccc1)N(CCCl)Cc1ccccc1 (centres unmarked) [Phenoxybenzamine Hydrochloride, phenoxybenzamine hydrochloride]",pH of a 5% solution,[1],3.25
same,"injection site pain, share of all adverse events",[2],77%
same,efficacy of formulations in this study,active trigger points; 1.0 mg and 2.4 mg in propylene glycol and alcohol composition,ineffective
same,difference in percent change from baseline between placebo and active drug,"active trigger points; 1.0 mg group, not statistically significant",9.9%
same,efficacy compared with placebo,active trigger points; 2.4 mg group,equivalent to placebo
